Tests used:
Test in all cases: relative viability (nuclei count vs DMSO), 5 days (fraction); higher = more cells survive
Vandetanib + Phenformin = compound: COc1cc2/c(=N/c3ccc(Br)cc3F)nc[nH]c2cc1OCC1CCN(C)CC1 [Vandetanib] + N=C(N)NC(=N)NCCc1ccccc1 [Phenformin] (partner 250 µM)
Outline: (§1)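 Relative viability divides the nuclei count in treated wells by that in vehicle wells. Lung cancer cell lines were seeded in 1536-well plates, dosed by pin tool the next day, and fixed and stained after 5 days in one step with final 0.05% Triton X-100, 1% formaldehyde and 1 ug/ml Hoechst. Dosing was a single drug or a fixed anchor-drug dose plus five library-drug doses (not always all listed) in √10 steps, and values are medians of duplicate plates imaged at 4×.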

NVP-TAE684 + Pemetrexed = compound: COc1cc(N2CCC(N3CCN(C)CC3)CC2)ccc1Nc1ncc(Cl)c(Nc2ccccc2S(=O)(=O)C(C)C)n1 [NVP-TAE684] + Nc1nc2[nH]cc(CCc3ccc(C(=O)N[C@@H](CCC(=O)O)C(=O)O)cc3)c2c(=O)[nH]1 [Pemetrexed] (partner 0.2 µM)
Outline: as §1

CUDC-101 + Foretinib = compound: C#Cc1cccc(Nc2ncnc3cc(OC)c(OCCCCCCC(=O)NO)cc23)c1 [CUDC-101] + COc1cc2c(Oc3ccc(NC(=O)C4(C(=O)Nc5ccc(F)cc5)CC4)cc3F)ccnc2cc1OCCCN1CCOCC1 [Foretinib] (partner 0.25 µM)
Outline: as §1

NVP-TAE684 + Vorinostat = compound: COc1cc(N2CCC(N3CCN(C)CC3)CC2)ccc1Nc1ncc(Cl)c(Nc2ccccc2S(=O)(=O)C(C)C)n1 [NVP-TAE684] + O=C(CCCCCCC(=O)Nc1ccccc1)NO [Vorinostat] (partner 1 µM)
Outline: as §1

**Q.** How did the relative viability (Vandetanib + Phenformin; first compound 0.02 µM) turn out when UMC-11 was run?
**A.** 0.3

**Q.** What about the relative viability (Vandetanib + Phenformin; first compound 0.06325 µM) of the same cell line?
**A.** 0.308

**Q.** And the relative viability (Vandetanib + Phenformin; first compound 0.2 µM)?
**A.** 0.33

**Q.** What about the relative viability (Vandetanib + Phenformin; first compound 0.6325 µM) of the same cell line?
**A.** 0.289

**Q.** What about the relative viability (Vandetanib + Phenformin; first compound 2 µM) of the same cell line?
**A.** 0.335

**Q.** What about the relative viability (NVP-TAE684 + Pemetrexed; first compound 0.2 µM) of the same cell line?
**A.** 0.736

**Q.** And the relative viability (NVP-TAE684 + Pemetrexed; first compound 0.6325 µM)?
**A.** 0.735

**Q.** What about the relative viability (NVP-TAE684 + Pemetrexed; first compound 2 µM) of the same cell line?
**A.** 0.347

**Q.** And the relative viability (CUDC-101 + Foretinib; first compound 0.01 µM)?
**A.** 1.06

**Q.** And the relative viability (CUDC-101 + Foretinib; first compound 0.03162 µM)?
**A.** 1.03

**Q.** What about the relative viability (CUDC-101 + Foretinib; first compound 0.1 µM) of the same cell line?
**A.** 0.945

**Q.** And the relative viability (CUDC-101 + Foretinib; first compound 0.3162 µM)?
**A.** 0.317

**Q.** What about the relative viability (CUDC-101 + Foretinib; first compound 1 µM) of the same cell line?
**A.** 0.106

**Q.** What about the relative viability (NVP-TAE684 + Vorinostat; first compound 0.2 µM) of the same cell line?
**A.** 0.385

**Q.** What about the relative viability (NVP-TAE684 + Vorinostat; first compound 0.6325 µM) of the same cell line?
**A.** 0.336

**Q.** And the relative viability (NVP-TAE684 + Vorinostat; first compound 2 µM)?
**A.** 0.186

From the supplement of paper PMC10307832
